Assays:
[1] = test system: tubulin (vinblastine binding site); assay: BODIPY FL vinblastine competition assay; set-up: species or system porcine; conditions: 25 μM; 5 μM BODIPY FL-vinblastine
Description: For the vinblastine competition assay, fluorescence was monitored by excitation of the reaction mixture at 490 nm and the emission spectra at the 510-550 nm range.

UC3 (Bladder) = assay: SRB-based cytotoxicity assay; assay type: cell-based; conditions: 72 hours
Method in brief: (§1)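 Seventy-two-hour SRB protein-staining assay with 4,000-5,000 cells/well and compounds delivered in DMSO. Fixation uses cold 10% TCA, and dye is released in Tris pH 10.5 before reading at 540 nm. Duplicate biological experiments, each in quadruplicate, feed the dose-response fits.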

NCI-H1975 (lung) = assay: SRB-based cytotoxicity assay; assay type: cell-based; conditions: Homo sapiens, 72 hours
Method in brief: as §1

A549 (lung) = assay: SRB-based cytotoxicity assay; assay type: cell-based; conditions: Homo sapiens, 72 hours
Method in brief: as §1

T98G (brain) = assay: SRB-based cytotoxicity assay; assay type: cell-based; conditions: Homo sapiens, 72 hours
Method in brief: as §1

U87MG (brain) = assay: SRB-based cytotoxicity assay; assay type: cell-based; conditions: Homo sapiens, U-87 MG, 72 hours
Method in brief: as §1

K562 = assay: SRB-based cytotoxicity assay; assay type: cell-based; conditions: Homo sapiens, Table 2
Method in brief: as §1

HEK293T (kidney) = assay: SRB-based cytotoxicity assay; assay type: cell-based; conditions: Homo sapiens, HEK-293T, 72 hours
Method in brief: as §1

[2] = biological target: T1, tubulin (colchicine-binding site) (Sus scrofa, UniProt P02550+P02554); assay: Colchicine competition assay; set-up: species or system porcine; conditions: colchicine 1.0-8.0 μM
T1 construct: purchased Cytoskeleton Inc. (Denver, Colo.) T240

HeLa cells = assay: Cell cycle analysis by flow cytometry; assay type: cell-based; conditions: 6-72 hours
Experimental: Approximately 1×10^6 cells per plate were seeded and grown overnight. Cells were then treated the next morning with test compounds, and harvested at the scheduled post-treatment times. The cell pellet was collected by centrifugation at 1,100 rpm (Allegra™ X-12 centrifuge, Beckman Coulter, Indianapolis, Ind.), followed by washing the cells twice with PBS, and fixing them with 75% ethanol for 12-24 hours at −20° C. Ethanol was removed by centrifugation at […] (Allegra™ X-12 centrifuge, Beckman Coulter); cells were suspended in PBS and centrifuged again at […] in the same rotor. The PBS was then removed and the cell pellet was resuspended and stained for 1 hour with propidium iodide (PI) staining solution (0.3% nonidet P-40, 100 μg/ml RNase A and 100 μg/ml PI in PBS). The DNA content in the different phases of the cell cycle was analysed by flow cytometry using Beckmann Coulter Cytomics FC500 (Mississauga, ON, Canada). The reversibility of drug effects was determined as follow: HeLa cells treated with a CTR compound for 12 hours were washed twice with 1×PBS, and then released them into pre-warmed drug-free complete medium for scheduled durations. The cells were then examined by confocal microscopy for their morphology or subjected to cell cycle analysis by flow cytometry after cells (DNA) were stained with propidium iodide.

[3] = SRB-based cytotoxicity assay; assay type: cell-based; conditions: human, MCF-10A cells (non-cancer breast cells); MCF10A; 31.25 nM; 72 hours; read-out: cell viability
Method in brief: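 4,000-5,000 cells/well, 16 h pre-incubation; compound (DMSO) 72 h; 10% TCA fix 4 °C 1 h; 0.4% SRB 30 min, 1% acetic acid wash; 10 mM Tris pH 10.5; A540. IC50 by sigmoidal fit, n=2 biological × 4.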

| Structure (SMILES) | binding to the vinblastine binding site on the tubulin [1] | IC50 (UC3 (Bladder)) | IC50 (NCI-H1975 (lung)) | IC50 (A549 (lung)) | IC50 (T98G (brain)) | IC50 (U87MG (brain)) | IC50 (K562) | IC50 (HEK293T (kidney)) | effect on binding of colchicine to tubulin [2] | concentrations that caused mitotic arrest and, eventually, cell death (HeLa cells) | viability at 72 h, 0.03125 µM [3] |
| --- | --- | --- | --- | --- | --- | --- | --- | --- | --- | --- | --- |
| COc1ccccc1C(=O)/C=C/c1cc2ccccc2[nH]c1=O [CTR-17, (E)-3-(3-(2-Methoxyphenyl)-3-oxoprop-1-enyl)quinolin-2(1H)-one] | did not bind to the vinblastine binding site | 390 ± 30 nM | 600 ± 140 nM | 410 ± 60 nM | 820 ± 90 nM | 760 nM | 150 ± 100 nM | 420 ± 70 nM | inhibited the binding of colchicine to tubulin | – | – |
| COc1ccc2[nH]c(=O)c(/C=C/C(=O)c3ccccc3OC)cc2c1 [CTR-20, (E)-6-Methoxy-3-(3-(2-methoxyphenyl)-3-oxoprop-1-enyl) quinolin-2(1H)-one] | did not bind to the vinblastine binding site | 120 ± 30 nM | 390 ± 140 nM | 130 ± 40 nM | 220 ± 100 nM | 490 ± 130 nM | 130 ± 20 nM | 190 nM | inhibited the binding of colchicine to tubulin | – | – |
| COc1ccccc1C(=O)/C=C/c1cc2cccc(OC)c2[nH]c1=O [CTR-21, (E)-8-methoxy-3-(3-(2-methoxyphenyl)-3-oxoprop-1-enyl) quinolin-2(1H)-one] | – | – | – | – | – | – | – | – | – | > 60 nM | 26% |
| CCOc1ccccc1C(=O)/C=C/c1cc2ccccc2[nH]c1=O [CTR-32, (E)-3-(3-(2-ethoxyphenyl)-3-oxoprop-1-enyl)quinolin-2(1H)-one] | – | – | – | – | – | – | – | – | – | > 50 nM | 87% |
